Measurements published in patent publication US20240269304A1, “BCL-XL INHIBITOR ANTIBODY-DRUG CONJUGATES AND METHODS OF USE THEREOF” (Novartis AG, priority 2020, published 2024).
Like-named read-outs stand apart in the source and are kept apart here.

Assays:
[1] = test system: NCI-H1650; test: CellTiter Glo 3D spheroid proliferation/survival, 5 days, NCI-H1650, 0.0005-500 nM (Example 10); assay type: cell-based, human; settings: spheroids, 0.0005-500 nM
Method: One target was assessed: EGFR.
The ability of the BCL-xL antibody drug conjugates to inhibit cell proliferation and survival was assessed using the Promega CellTiter-Glo® proliferation assay.
Cell lines were cultured in media that is optimal for their growth at 5% CO2, 37° C. in a tissue culture incubator. Prior to seeding for the proliferation assay, the cells were split at least 2 days before the assay to ensure optimal growth density. […] Cell viability and cell density were determined using a cell counter (Vi-Cell XR Cell Viability Analyzer, Beckman Coulter).
Cells were seeded at a density of 3,000 cells per well in 45 uL of standard growth media. Plates were spun in a centrifuge for 5 minutes and 1,000 RPM. Plates were incubated at 5% CO2, 37° C. for 72 hours in a tissue culture incubator. On the day of dosing, EGFR targeting BCL-xL ADCs were prepared at 1OX in standard growth media. The prepared drug treatments were then added to the cells resulting in final concentrations of 0.0005-500 nM and a final volume of 50 μL per well. Each drug concentration was tested in quadruplets. Plates were incubated at 5% CO2, 37° C. for 5 days in a tissue culture incubator.
Cell viability was assessed through the addition of 40 μL of CellTiter Glo 3D Cell Viability Assay substrate (Promega, cat #G9681), a reagent which lyses cells and measures total adenosine triphosphate (ATP) content. Wells were mixed thoroughly and plates were incubated at room temperature for 30 minutes to stabilize luminescent signals prior to reading using a luminescence reader (EnVision Multilabel Plate Reader, PerkinElmer).
To evaluate the effect of the drug treatments, luminescent counts from wells containing untreated cells (100% viability) were used to normalize treated samples. […] IC50 and Amax values were extrapolated from the resultant curves.

[2] = test system: DND-41 cells; test: CellTiterGlo (CTG) cell viability, 72 h, DND-41 (Example 8); assay type: cell-based
Method: DND-41 cells were cultivated in RPMI supplemented with 10% heat inactivated fetal bovine serum, penicillin (100 IU/ml), streptomycin (100 μg/ml) and L-glutamine (2 mM). Cell lines were cultured at 37° C. in a humidified atmosphere containing 5% CO2. […] Effects of payloads or ADCs on cell viability were assessed after 3 days of incubation at 37° C./5% CO2 by quantification of cellular ATP levels using CellTiterGlo at 75 μL reagent/well. All the conditions were tested in triplicates. Luminescence was quantified on a multipurpose plate reader. IC50s were calculated using standard four-parametric curve fitting.

[3] = ADC stability study: % aggregates by SEC after incubation at 37° C. for 168 h; assay type: physicochemical
Method: Size Exclusion Chromatography: Size exclusion chromatography (SEC) was performed for quality control of each ADCs by measuring monomer percentage of the conjugate. The analysis was performed on analytical column Superdex 200 Increase 5/150 GL (GE Healthcare, 28990945) in isocratic conditions 100% PBS pH7.4 (Sigma Life Science, P3813, 10PAK), flow 0.45 mI/min for 12 minutes. The % aggregate fraction of the conjugate sample was quantified based on the peak area absorbance at 280 nm. Its calculation was based on the ratio between the high molecular weight eluent at 280 nm divided by the sum of peak area absorbance at the same wavelength of the high molecular weight and monomeric eluents multiplied by 100.
Characterization of the exemplary ADCs is summarized in Table 13 (coupling, LC-MS method, OAR, aggregation status, ADO stability and yield). The average OAR values were determined using the above LC-MS methods and the percentage of aggregates was measured by size exclusion chromatography (SEC) during the quality control of the ADO and after the stability study (incubation at 37° C. for 168 h).

[4] = test system: ALL-SIL cells; test: CellTiterGlo (CTG) cell viability, 72 h, ALL-SIL (Example 8); assay type: cell-based
Method: ALL-SIL cells were cultivated in RPMI supplemented with 20% heat inactivated fetal bovine serum, penicillin (100 IU/ml), streptomycin (100 μg/ml) and L-glutamine (2 mM). Cell lines were cultured at 37° C. in a humidified atmosphere containing 5% CO2. Cells were seeded in 96 well clear bottom plates (96 well clear-bottom, white, Corning reference 3903) and exposed to the payloads or ADCs for 72 h (serially diluted; 9 concentrations each, triplicates). Effects of payloads or ADCs on cell viability were assessed after 3 days of incubation at 37° C./5% CO2 by quantification of cellular ATP levels using CellTiterGlo at 75 μL reagent/well. All the conditions were tested in triplicates. Luminescence was quantified on a multipurpose plate reader. IC50s were calculated using standard four-parametric curve fitting. […] Each experiment was performed at least twice, with results being reproducible.

[5] = test system: ALL-SILL (T-ALL); test: CellTiter-Glo viability 72 h, single agent or 1/1 combination, ALL-SIL (Example 9); assay type: cell-based; settings: single agent or 1/1 combination as labelled
Method: Cell lines were cultured in the media described above at 37° C. in a humidified atmosphere containing 5% CO2. […] Effects of payloads or ADCs on cell viability were assessed after 3 days of incubation at 37° C./5% CO2 by quantification of cellular ATP levels using CellTiter-Glo reagent (Promega Ref: G7571) at 75 μL reagent/well. All the conditions were tested in triplicates. Luminescence was quantified on a multipurpose plate reader. IC50s were calculated using standard four-parametric curve fitting.

[6] = test system: H1650 cells; test: CellTiterGlo (CTG) cell viability, 3D, 120 h, H1650 (Example 8); assay type: cell-based, human
[7] = experiment n1, read-out: DND41 CTG 72 h IC50 nM n1
[8] = experiment n2, read-out: DND41 CTG 72 h IC50 nM n2
[9] = mean of n1 and n2, read-out: DND41 CTG 72 h IC50 nM Mean of n1 and n2
[10] = experiment n1, read-out: ALLSIL CTG 72 h IC50 nM n1
[11] = experiment n2, read-out: ALLSIL CTG 72 h IC50 nM n2
[12] = mean of n1 and n2, read-out: ALLSIL CTG 72 h IC50 nM Mean of n1 and n2
[13] = n1, read-out: ALL-SILL (T-ALL) IC50 n1
[14] = n2, read-out: ALL-SILL (T-ALL) IC50 n2

Structure (SMILES): COCCOCCOCCOCCOCCOCCOCCOCCn1cc(COC(=O)N(C)Cc2cc(NC(=O)[C@H](CCCNC(N)=O)NC(=O)[C@@H](NC(=O)CCOCCN3C(=O)CC(C)C3=O)C(C)C)ccc2C[N+](C)(C)CC#Cc2ccc(OCCCc3sc(N4CCCc5c4nnc(Nc4nc6ccccc6s4)c5C)nc3C(=O)O)c(F)c2)nn1 (mixture of isomers) [EGFR1-L4A-P1]
- IC50 [1]: < 0.686 nM

Structure (SMILES): Cc1c(Cc2nc3ccccc3s2)nnc2c1CCCN2c1nc(C(=O)O)c(CCCOc2ccc(C#CCN(C)C(=O)OCc3ccc(NC(=O)[C@H](CCCNC(N)=O)NC(=O)[C@@H](NC(=O)CCOCCN4C(=O)CC(C)C4=O)C(C)C)cc3CN(Cc3cn(CCOCCOCCOCCOCCOCCOCCOCCOCCC(=O)O)nn3)C(=O)OCc3cn(CCOCCOCCOCCOCCOCCOCCOCCOCCC(=O)O)nn3)cc2F)s1 (mixture of isomers) [EGFR1-L10C-P3]
- IC50 [1]: < 18.5 nM

Structure (SMILES): Cc1cc(N(CCCC(O)C[N+](C)(C)CCCS(=O)(=O)O)c2nc(C(=O)O)c(CCCOc3ccc(C#CCN(C)C(=O)OCc4ccccc4CN(C)C(=O)OCc4cn(CCOCCOCCOCCOCOCCOCCOCCOCCCC(=O)O)nn4)cc3F)s2)nnc1Nc1nc2ccccc2s1 (stereo not drawn) [EGFR1-L3C-P4]
- IC50 [1]: > 500 nM

Structure (SMILES): CC(=O)C1=C(CCCOc2ccc(C#CCC(C)(C)Cc3ccc(NC(=O)[C@H](CCCNC(N)=O)NC(=O)[C@@H](NC(=O)CCOCCN4C(=O)CC(C)C4=O)C(C)C)cc3)cc2C)CC(C2CCCC3C2=NN=C(NC2=Nc4ccccc4C2)C3C)=C1 (stereo partly drawn) [Ab D - L9A-P1]
- IC50 [2, 7]: 0.16 nM
- IC50 [2, 8]: 0.14 nM
- IC50 [2, 9]: 0.15 nM
- Stab w1 +37° C. % Agg (by SEC) [3]: 8%
- IC50 [4, 10]: 0.025 nM
- IC50 [4, 11]: 0.037 nM
- IC50 [4, 12]: 0.031 nM

Structure (SMILES): Cc1cc(N(C)c2nc(C(=O)O)c(CCCOc3ccc(C#CC[N+](C)(C)Cc4ccc(NC(=O)[C@H](CCCNC(N)=O)NC(=O)[C@@H](NC(=O)CCOCCN5C(=O)CC(C)C5=O)C(C)C)cc4CN(Cc4cn(CCOCCOCCOCCOCCOCCOCCOCCOCCC(=O)O)nn4)C(=O)OCc4cn(CCOCCOCCOCCOCCOCCOCCOCCOCCC(=O)O)nn4)cc3F)s2)nnc1Nc1nc2ccccc2s1 (mixture of isomers) [EGFR1-L10A-P2]
- IC50 [1]: < 6.17 nM

Structure (SMILES): C=C(C)CCCC[C@](C)(NC(=O)[C@@](C)(NC(=O)CCOCCN1C(=O)CC(C)C1=O)C(C)C)C(=O)Nc1ccc(CC(C)(C)CC#Cc2ccc(OCCCC3=C(C(C)=O)N=C(N4CCCc5c4nnc(Oc4nc6ccccc6o4)c5C)C3)c(C)c2)c(S(=O)(=O)O)c1 (stereo partly drawn) [Ab D - L27A-P1]
- IC50 [2, 7]: 0.21 nM
- IC50 [2, 8]: 0.28 nM
- IC50 [2, 9]: 0.245 nM
- Stab w1 +37° C. % Agg (by SEC) [3]: 9%
- IC50 [4, 10]: 0.028 nM
- IC50 [4, 11]: 0.018 nM
- IC50 [4, 12]: 0.023 nM

Structure (SMILES): Cc1cc(N(CCCC(O)CO)C2=NC(C(=O)O)=C(CCCOc3ccc(C#CCN(C)C(=O)OCc4ccc(NC(=O)[C@H](CCCNC(N)=O)NC(=O)[C@@H](NC(=O)CCOCCN5C(=O)CC(C)C5=O)C(C)C)cc4)cc3F)C2)nnc1Nc1nc2ccccc2s1 (stereo partly drawn) [Ab D - L9C-P46]
- IC50 [2, 7]: > 100 nM
- IC50 [2, 8]: > 100 nM
- IC50 [2, 9]: > 100 nM
- Stab w1 +37° C. % Agg (by SEC) [3]: 6%
- IC50 [4, 10]: 0.18 nM
- IC50 [4, 11]: 0.2 nM
- IC50 [4, 12]: 0.19 nM

Structure (SMILES): Cc1c(Nc2nc3ccccc3s2)nnc2c1CCCN2c1nc(C(=O)O)c(CCCOc2ccc(C#CCN3CCN(C(=O)OCc4ccc(NC(=O)[C@H](CCCNC(N)=O)NC(=O)[C@@H](NC(=O)CCOCCN5C(=O)CC(C)C5=O)C(C)C)cc4)CC3)cc2F)s1 (stereo partly drawn) [Ab D - L9C-P17]
- IC50 [2, 7]: 2.1 nM
- IC50 [2, 8]: 0.38 nM
- IC50 [2, 9]: 1.24 nM
- Stab w1 +37° C. % Agg (by SEC) [3]: 6%
- IC50 [4, 10]: 0.006 nM
- IC50 [4, 11]: 0.01 nM
- IC50 [4, 12]: 0.008 nM

Structure (SMILES): Cc1c(Nc2nc3ccccc3s2)nnc2c1CCCN2c1ccc(-c2cnn(CC34CC5(C)CC(C)(CC(CCCNCCCO)(C5)C3)C4)c2C)c(C(=O)O)n1 [P40, 6-[3-(1,3-benzothiazol-2-ylamino)-4-methyl-6,7-dihydro-5H-pyrido[2,3-c]pyridazin-8-yl]-3-[1-[[3-[3-(3-hydroxypropylamino)propyl]-5,7-dimethyl-1-adamantyl]methyl]-5-methyl-pyrazol-4-yl]pyridine-2-carboxylic acid]
- IC50 [5, 13]: 1.06 nM
- IC50 [5, 14]: 1.26 nM

Structure (SMILES): Cc1c(Nc2nc3ccccc3s2)nnc2c1CCCN2c1ccc(-c2cnn(C[C@]34C[C@]5(C)C[C@](C)(C3)C[C@@](OCCN3CCCCCC3)(C5)C4)c2C)c(C(=O)O)n1 [P33, 3-[1-[[3-[2-(azepan-1-yl)ethoxy]-5,7-dimethyl-1-adamantyl]methyl]-5-methyl-pyrazol-4-yl]-6-[3-(1,3-benzothiazol-2-ylamino)-4-methyl-6,7-dihydro-5H-pyrido[2,3-c]pyridazin-8-yl]pyridine-2-carboxylic acid]
- IC50 ([6]; Homo sapiens, NCI-H1650, H1650 3D, experiment n1, read-out: H1650 3D CTG IC50 n1): 0.89 nM
- IC50 ([6]; Homo sapiens, NCI-H1650, H1650 3D, experiment n2, read-out: H1650 3D CTG IC50 n2): 0.57 nM
- IC50 ([6]; Homo sapiens, NCI-H1650, H1650 3D, mean of n1 and n2, read-out: H1650 3D CTG IC50 Mean of n1 and n2): 0.73 nM
- IC50 ([5]; mean, read-out: ALL-SILL (T-ALL) IC50 mean): 0.145 nM
- IC50 [5, 13]: 0.1 nM
- IC50 [5, 14]: 0.19 nM

Structure (SMILES): Cc1cc(N(CCCO)C2=NC(C(=O)O)=C(CCCOc3ccc(C#CCN(C)C(=O)OCc4ccc(NC(=O)[C@](C)(CCCNC(N)=O)NC(=O)[C@@H](NC(=O)CCOCCN5C(=O)CC(C)C5=O)C(C)C)cc4)cc3F)C2)nnc1Nc1nc2ccccc2s1 (stereo partly drawn) [Ab D - L9C-P45]
- IC50 [2, 7]: > 100 nM
- IC50 [2, 8]: > 100 nM
- IC50 [2, 9]: > 100 nM
- Stab w1 +37° C. % Agg (by SEC) [3]: 2%
- IC50 [4, 10]: 0.36 nM
- IC50 [4, 11]: 0.38 nM
- IC50 [4, 12]: 0.37 nM

Structure (SMILES): CC(=O)CCCC[C@](C)(CC(=O)[C@@](C)(CC(=O)CCCCCC1C(=O)CC(C)C1=O)C(C)C)C(=O)Cc1ccc(CC(C)(C)CC#Cc2ccc(CCCCC3=C(C(C)=O)C=C(C4CCCc5c4ccc(CC4=Cc6ccccc6C4)c5C)C3)cc2)cc1 (stereo partly drawn) [Ab C - L9A-P28]
- Stab w1 +37° C. % Agg (by SEC) [3]: 15%
- IC50 ([6]; H1650 3D, experiment n1, read-out: H1650 3D CTG IC50 n1): 0.21 nM
- IC50 ([6]; H1650 3D, experiment n2, read-out: H1650 3D CTG IC50 n2): 0.2 nM
- IC50 ([6]; H1650 3D, mean of n1 and n2, read-out: H1650 3D CTG IC50 Mean of n1 and n2): 0.21 nM
